Structures are written as SMILES. Where a name gives a salt, the structure may show the parent alone. Read-outs that look alike come from different tables or passages of the source.

For series [1], the system named is anemic decerebrate rigidity (Wistar male rats). Description: Effects on anemic decerebrate rigidity (EMG of M. triceps brachii). The series is classed as in vivo. To be noted: Rattus norvegicus, iv, 10 min, read-out: Suppression rate (rigidity, EMG pulse area).
Experimental: An anemic decerebrate rigidity sample was prepared principally in accordance with the procedure of Fukuda et al. [Japan. […] Wistar male rats (body weight: 270 to 350 g) were held on their backs and incised at their cervices under etherization. After the trachea and common carotid arteries were exposed, the trachea was cannulated and the bilateral common carotid arteries and esophagus were then double-ligated and cut. Thereafter, its occipital bone was exposed through which a circular hole was bored to double-ligate the centrally extending basilar artery. As each rat started coming out of anesthetization, its front limbs became rigid. Measurement was conducted by recording electromyographic (EMG) response from the muscle of the forelimb (M. triceps brachii) of the rat in the rigid state. The EMG pulses were converted to accumulated values every 10 seconds and recorded as a histogram on a recorder.
The effect of each test compound on the rigidity was evaluated in terms of the suppression rate. This rate was calculated first by determining the area of a decreased EMG pulse part on the histogram upon passage of 10 minutes after administration of a physiological saline solution of each test compound (3 mg/kg) through the femoral vein and then in accordance with the following equation.
A: EMG pulse area when no test compound was administered (control).
In series [2] the test system is glutamic acid at neuromuscular junctions of crayfish (opener muscles of the first walking legs). Description: Blocking effects against glutamic acid at neuromuscular junctions of crayfish (L-glutamic acid-induced depolarization). Type of series: cell-based. Particulars: 5 min; suppression rate of depolarization by L-glutamic acid (10^-4 M); 5-minute pretreatment with test compound 2×10^-4 M.
Text: The opener muscles of the first walking legs of crayfish were used as experimental materials. The neuromuscular sample was held in a bath in which a physiological solution [composition (mM): NaCl (195), CaCl2 (18), KCl (5.4), tris-maleate buffer (pH 7.5; 10), glucose (11)] for use with the crayfish was perfused at room temperature and at a constant flow rate. A glass micro-electrode filled with a 3M-KCl solution was inserted in a central part of the muscle fiber to intracellularly record changes in the potential of the muscular cell membrane.
The blocking effect of each test compound against glutamic acid was evaluated in terms of the suppression rate to depolarization which was induced by bath-applying L-glutamic acid (10^-4 M) in a 5-minute pretreatment with a solution of the test compound (2×10^-4 M).

A short description of series [3]: Acute toxicity, up-and-down method. Particulars: mouse, in vivo; iv (caudal vein), ddN male mice. On the procedure:
Using ddN male mice, the acute toxicity level of each test compound was determined in accordance with an up-and-down method. Some of the test compounds used were dissolved in physiological saline and administered through the caudal vein.

Setting [4] is: 3 mg/kg through the femoral vein, 10 minutes after administration.

In the case of `C[C@H](NCCN1CCCC1)[C@H](O)c1ccccc1` (racemic) [Comparative compound 2, (1RS,2SR)-1-phenyl-2-(2-pyrrolidinoethylamino)propan-1-ol dihydrochloride, reference compound], in series [1], the inhibition in vivo at 3 mg/kg was 2.2%.

As for `C[C@H](NCCN1CCOCC1)[C@H](O)c1ccccc1` (racemic) [Comparative compound 3, (1RS,2SR)-2-(2-morpholinoethylamino)-1-phenylpropan-1-ol dihydrochloride, reference compound], the inhibition in vivo at 3 mg/kg in series [1] came to 1%.

`C[C@H](NCCN(C)C)[C@H](O)c1ccccc1` (racemic) [Comparative compound 4, (1RS,2SR)-2-(2-dimethylaminoethylamino)-1-phenylpropan-1-ol dihydrochloride, reference compound]: in series [1], the inhibition in vivo at 3 mg/kg was 1.1%.

The inhibition is the change of the read-out against control, counted positive when it falls. Broadly, the LD50 is the dose expected to kill half of the subjects tested. High values mean lower toxicity, low ones greater toxicity. `CCCC[C@H](NCCCN1CCCCC1)[C@H](O)c1ccccc1.Cl.Cl` (racemic) [Compound 3, (1RS,2SR)-1-phenyl-2-(3-piperidinopropylamino)hexan-1-ol dihydrochloride]: the inhibition at 200 µM in series [2] was found to be 99%. In series [1] (setting [4]), the inhibition in vivo at 3 mg/kg amounted to 17.5%. The LD50 in series [3] came out at 19.2 mg/kg.

For the molecule `CCCCC[C@H](NCCCN1CCCCC1)[C@H](O)c1ccccc1.Cl.Cl` (racemic) [Compound 5, (1RS,2SR)-1-phenyl-2-(3-piperidinopropylamino)heptan-1-ol dihydrochloride], in series [2], the inhibition at 200 µM is 100%. Also, the inhibition in vivo at 3 mg/kg in series [1] (setting [4]) was found to be 18.5%. Further, the LD50 in series [3] was determined as 22.1 mg/kg.

For `CCCCC[C@@H](NCCCN1CCCCC1)[C@H](O)c1ccccc1` (racemic) [Compound 6, (1RS,2RS)-1-phenyl-2-(3-piperidinopropylamino)heptan-1-ol dihydrochloride], in series [2], the inhibition at 200 µM worked out at 100%.

As for `CCCCCC[C@H](NCCCN1CCCCC1)[C@H](O)c1ccccc1` (racemic) [Compound 7, (1RS,2SR)-1-phenyl-2-(3-piperidinopropylamino)octan-1-ol dihydrochloride], the inhibition at 200 µM in series [2] was 98%.

`CCCCCCCC[C@H](NCCCN1CCCCC1)[C@H](O)c1ccccc1` (racemic) [Compound 11, (1RS,2SR)-1-phenyl-2-(3-piperidinopropylamino)decan-1-ol dihydrochloride]: the inhibition at 200 µM in series [2] stood at 100%.

In the case of `CC(C)C[C@H](NCCCN1CCCCC1)[C@H](O)c1ccccc1.Cl.Cl` (racemic) [Compound 15, (1RS,2SR)-4-methyl-1-phenyl-2-(3-piperidinopropylamino)pentan-1-ol dihydrochloride], the inhibition at 200 µM in series [2] was 100%. This molecule registered an LD50 in series [3] of 23.6 mg/kg.

As to `CC(C)C[C@@H](NCCCN1CCCCC1)[C@H](O)c1ccccc1.Cl.Cl` (racemic) [Compound 16, (1RS,2RS)-4-methyl-1-phenyl-2-(3-piperidinopropylamino)pentan-1-ol dihydrochloride], the inhibition at 200 µM in series [2] turned out to be 95%. Besides, the median lethal dose (LD50) in series [3] was 28.8 mg/kg.

`CC(C)CC[C@H](NCCCN1CCCCC1)[C@H](O)c1ccccc1.Cl.Cl` (racemic) [Compound 21, (1RS,2SR)-5-methyl-1-phenyl-2-(3-piperidinopropylamino)hexan-1-ol dihydrochloride]: in series [2], the inhibition at 200 µM is 100%. Also, in series [1] (setting [4]), the inhibition in vivo at 3 mg/kg came to 65.9%. In series [3], the LD50 is 13.6 mg/kg.

`CC(C)CC[C@@H](NCCCN1CCCCC1)[C@H](O)c1ccccc1.Cl.Cl` (racemic) [Compound 22, (1RS,2RS)-5-methyl-1-phenyl-2-(3-piperidinopropylamino)hexan-1-ol dihydrochloride]: the inhibition at 200 µM in series [2] is 100%. For the same molecule, the inhibition in vivo at 3 mg/kg in series [1] (setting [4]) is 42.3%. The LD50 in series [3] came out at 19 mg/kg.

With `CC(C)C[C@H](NCCCN1CCCC1)[C@H](O)c1ccccc1` (racemic) [Compound 23, (1RS,2SR)-4-methyl-1-phenyl-2-(3-pyrrolidinopropylamino)pentan-1-ol dihydrochloride], the inhibition at 200 µM in series [2] was 97%.

Take `CC(C)C[C@H](NCCCN1CCOCC1)[C@H](O)c1ccccc1` (racemic) [Compound 25, (1RS,2SR)-4-methyl-2-(3-morpholinopropylamino)-1-phenylpentan-1-ol dihydrochloride]: the inhibition at 200 µM in series [2] stood at 90%.

In the case of `CC(C)C[C@H](NCCCN(C)C)[C@H](O)c1ccccc1` (racemic) [Compound 27, (1RS,2SR)-2-(3-dimethylaminopropylamino)-4-methyl-1-phenylpentan-1-ol dihydrochloride], the inhibition at 200 µM in series [2] was 95%.

As for `CC(C)C[C@H](NCCN1CCCCC1)[C@H](O)c1ccccc1` (racemic) [Compound 29, (1RS,2SR)-4-methyl-1-phenyl-2-(2-piperidinoethylamino)pentan-1-ol dihydrochloride], the inhibition at 200 µM in series [2] came out at 93%.

As to `CC(C)C[C@H](NCCN1CCCC1)[C@H](O)c1ccccc1` (racemic) [Compound 31, (1RS,2SR)-4-methyl-1-phenyl-2-(2-pyrrolidinoethylamino)pentan-1-ol dihydrochloride], the inhibition at 200 µM in series [2] was 91%.

Take `CC(C)CC[C@H](NCCCN1CCOCC1)[C@H](O)c1ccccc1` (racemic) [Compound 37, (1RS,2SR)-5-methyl-2-(3-morpholinopropylamino)-1-phenylhexan-1-ol dihydrochloride]: the inhibition at 200 µM in series [2] turned out to be 99%.

`CC(C)CC[C@H](NCCCN(C)C)[C@H](O)c1ccccc1` (racemic) [Compound 39, (1RS,2SR)-2-(3-dimethylaminopropylamino)-5-methyl-1-phenylhexan-1-ol dihydrochloride]: the inhibition at 200 µM in series [2] was 100%.

Turning to `Cc1ccccc1[C@@H](O)[C@H](CC(C)C)NCCCN1CCCCC1` (racemic) [Compound 47, (1RS,2SR)-4-methyl-1-(2-methylphenyl)-2-(3-piperidinopropylamino)pentan-1-ol dihydrochloride], in series [2], the inhibition at 200 µM turned out to be 100%.

Take `Cc1cccc([C@@H](O)[C@H](CC(C)C)NCCCN2CCCCC2)c1` (racemic) [Compound 49, (1RS,2SR)-4-methyl-1-(3-methylphenyl)-2-(3-piperidinopropylamino)pentan-1-ol dihydrochloride]: the inhibition at 200 µM in series [2] turned out to be 100%.

Consider `Cc1ccc([C@@H](O)[C@H](CC(C)C)NCCCN2CCCCC2)cc1` (racemic) [Compound 51, (1RS,2SR)-4-methyl-1-(4-methylphenyl)-2-(3-piperidinopropylamino)pentan-1-ol dihydrochloride], for which, in series [2], the inhibition at 200 µM is 100%.

For the molecule `COc1ccc([C@@H](O)[C@H](CC(C)C)NCCCN2CCCCC2)cc1` (racemic) [Compound 53, (1RS,2SR)-1-(4-methoxyphenyl)-4-methyl-2-(3-piperidinopropylamino)pentan-1-ol dihydrochloride], the inhibition at 200 µM in series [2] worked out at 91%.

As to `CC(C)C[C@H](NCCCN1CCCCC1)[C@H](O)c1ccc(F)cc1` (racemic) [Compound 55, (1RS,2SR)-1-(4-fluorophenyl)-4-methyl-2-(3-piperidinopropylamino)pentan-1-ol dihydrochloride], the inhibition at 200 µM in series [2] came to 99%.

In the case of `CC(C)C[C@H](NCCCN1CCCCC1)[C@H](O)c1ccc(Cl)cc1` (racemic) [Compound 57, (1RS,2SR)-1-(4-chlorophenyl)-4-methyl-2-(3-piperidinopropylamino)pentan-1-ol dihydrochloride], the inhibition at 200 µM in series [2] amounted to 99%.

In the case of `CC(C)C[C@@H](NCCCN1CCCCC1)[C@H](O)c1ccc(Cl)cc1` (racemic) [Compound 58, (1RS,2RS)-1-(4-chlorophenyl)-4-methyl-2-(3-piperidinopropylamino)pentan-1-ol dihydrochloride], the inhibition at 200 µM in series [2] amounted to 97%.

Turning to `CO[C@H](c1ccccc1)[C@H](CCC(C)C)NCCCN1CCCCC1` (racemic) [Compound 59, (1RS,2SR)-5-methyl-1-phenyl-2-(3-piperidinopropylamino)hexan-1-ol methylether dihydrochloride], the inhibition at 200 µM in series [2] was 97%.

Regarding `CCN(CCCN1CCCCC1)[C@@H](CCC(C)C)[C@H](O)c1ccccc1` (racemic) [Compound 65, (1RS,2SR)-2-[ethyl-(3-piperidinopropyl)amino]-5-methyl-1-phenylhexan-1-ol dihydrochloride], the inhibition at 200 µM in series [2] stood at 99%.

With `Cc1ccc([C@@H](O)[C@@H](CC(C)C)NCCCN2CCCCC2)cc1` (relative stereo) [Compound 52, (1RS,2RS)-4-methyl-1-(4-methylphenyl)-2-(3-piperidinopropylamino)pentan-1-ol dihyrochloride], in series [2], the inhibition at 200 µM was determined as 93%.

As to `Cc1ccc(C(=O)C(C)CN2CCCCC2)cc1` (stereo not shown) [Comparative compound 5, tolperisone hydrochloride, reference compound], the inhibition in vivo at 3 mg/kg in series [1] (setting [4]) was 4.8%.

Consider `CC(C)C[C@H](NCCCN1CCCCC1)[C@H](O)c1ccccc1.Cl.Cl` [Compound 17, (1R,2S)-4-methyl-1-phenyl-2-(3-piperidinopropylamino)pentan-1-ol dihydrochloride], for which, in series [2], the inhibition at 200 µM came to 100%. In series [3], this molecule had an LD50 of 15.4 mg/kg.

As for `CC(C)C[C@@H](NCCCN1CCCCC1)[C@@H](O)c1ccccc1` [Compound 18, (1S,2R)-4-methyl-1-phenyl-2-(3-piperidinopropylamino)pentan-1-ol dihydrochloride], in series [2], the inhibition at 200 µM was found to be 97%.

With `CC(C)C[C@H](NCCCN1CCCCC1)[C@@H](O)c1ccccc1.Cl.Cl` [Compound 19, (1S,2S)-4-methyl-1-phenyl-2-(3-piperidinopropylamino)pentan-1-ol dihydrochloride], the inhibition at 200 µM in series [2] was determined as 100%. Further, the LD50 in series [3] stood at 28.4 mg/kg.

For `CC(C)C[C@@H](NCCCN1CCCCC1)[C@H](O)c1ccccc1` [Compound 20, (1R,2R)-4-methyl-1-phenyl-2-(3-piperidinopropylamino)pentan-1-ol dihydrochloride], the inhibition at 200 µM in series [2] is 98%.
